Here are results for 19 molecules from patent US9175003B2, “Substituted azoanthracene derivatives and intermediates for preparation thereof” (TransTech Pharma, LLC, priority 2009, dated 2015).

This experiment deals with human GLP-1 receptor (Homo sapiens (Human), UniProt P43220). The following applies: read-out: Mean EC50; cAMP, HTRF detection, 30 min at 37° C., HEK-293 cells expressing cloned human GLP-1 receptor.
Sequence of human GLP-1 receptor (P43220 24-463): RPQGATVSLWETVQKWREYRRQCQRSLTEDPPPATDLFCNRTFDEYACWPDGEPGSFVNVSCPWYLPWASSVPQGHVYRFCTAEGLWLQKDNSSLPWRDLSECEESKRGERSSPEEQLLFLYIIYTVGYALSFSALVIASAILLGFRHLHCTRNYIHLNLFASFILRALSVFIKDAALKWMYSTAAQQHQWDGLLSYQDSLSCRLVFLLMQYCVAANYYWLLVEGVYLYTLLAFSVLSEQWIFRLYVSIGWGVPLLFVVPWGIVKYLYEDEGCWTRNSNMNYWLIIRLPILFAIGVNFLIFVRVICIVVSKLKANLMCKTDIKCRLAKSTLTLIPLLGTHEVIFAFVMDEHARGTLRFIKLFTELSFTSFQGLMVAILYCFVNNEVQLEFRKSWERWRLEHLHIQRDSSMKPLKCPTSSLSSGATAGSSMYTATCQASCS
Take `Cc1cc(Oc2ccc(C[C@H](NC(=O)[C@@H]3Cc4cc5c(cc4CN3C(=O)c3ccccc3)O[C@@H](c3ccc(OCc4ccc(Cl)c(Cl)c4)cc3)CO5)C(=O)O)cc2)ccn1` [Example 177, (S)-2-({(3S,8S)-7-Benzoyl-3-[4-(3,4-dichloro-benzyloxy)-phenyl]-2,3,6,7,8,9-hexahydro-[1,4]dioxino[2,3-g]isoquinoline-8-carbonyl}-amino)-3-[4-(2-methyl-pyridin-4-yloxy)-phenyl]-propionic acid]: the EC50 is 150 nM.

Turning to `CCC[C@@H](c1ccccc1)N1Cc2cc3c(cc2C[C@H]1C(=O)N[C@@H](Cc1ccc(-c2ccc(C#N)cc2)cc1)C(=O)O)OC[C@H](c1ccc(OCc2ccc(Cl)c(Cl)c2)cc1)O3` [Example 178, (S)-3-(4′-Cyano-biphenyl-4-yl)-2-{[(3S,8S)-3-[4-(3,4-dichloro-benzyloxy)-phenyl]-7-((S)-1-phenyl-butyl)-2,3,6,7,8,9-hexahydro-[1,4]dioxino[2,3-g]isoquinoline-8-carbonyl]-amino}-propionic acid], the 50% effective concentration (EC50) is 306 nM.

For `CC[C@@H](c1ccccc1)N1Cc2cc3c(cc2C[C@H]1C(=O)N[C@@H](Cc1ccc(-c2ccnc(C)c2C)cc1)C(=O)O)OC[C@H](c1ccc(OCc2ccc(Cl)c(Cl)c2)cc1)O3` [Example 179, (S)-2-{[(3S,8S)-3-[4-(3,4-Dichloro-benzyloxy)-phenyl]-7-((S)-1-phenyl-propyl)-2,3,6,7,8,9-hexahydro-[1,4]dioxino[2,3-g]isoquinoline-8-carbonyl]-amino}-3-[4-(2,3-dimethyl-pyridin-4-yl)-phenyl]-propionic acid], the EC50 came out at 5 nM.

Regarding `CC[C@@H](c1ccccc1)N1Cc2cc3c(cc2C[C@H]1C(=O)N[C@@H](Cc1ccc(-c2cc(C)nn2C)cc1)C(=O)O)OC[C@H](c1ccc(OCc2ccc(Cl)c(Cl)c2)cc1)O3` [Example 180, (S)-2-{[(3S,8S)-3-[4-(3,4-Dichloro-benzyloxy)-phenyl]-7-((S)-1-phenyl-propyl)-2,3,6,7,8,9-hexahydro-[1,4]dioxino[2,3-g]isoquinoline-8-carbonyl]-amino}-3-[4-(2,5-dimethyl-2H-pyrazol-3-yl)-phenyl]-propionic acid], the EC50 turned out to be 3 nM.

In the case of `CC[C@@H](c1ccccc1)N1Cc2cc3c(cc2C[C@H]1C(=O)N[C@@H](Cc1ccc(Oc2ccnc(C)c2)cc1)C(=O)O)OC[C@H](c1ccc(OCc2ccc(Cl)c(Cl)c2)cc1)O3` [Example 181, (S)-2-{[(3S,8S)-3-[4-(3,4-Dichloro-benzyloxy)-phenyl]-7-((S)-1-phenyl-propyl)-2,3,6,7,8,9-hexahydro-[1,4]dioxino[2,3-g]isoquinoline-8-carbonyl]-amino}-3-[4-(2-methyl-pyridin-4-yloxy)-phenyl]-propionic acid], the EC50 was determined as 16 nM.

In the case of `CC[C@@H](c1ccccc1)N1Cc2cc3c(cc2C[C@H]1C(=O)N[C@@H](Cc1ccc(-c2ccnc4c2CCC4)cc1)C(=O)O)OC[C@H](c1ccc(OCc2ccc(Cl)c(Cl)c2)cc1)O3` [Example 182, (S)-2-{[(3S,8S)-3-[4-(3,4-Dichloro-benzyloxy)-phenyl]-7-((S)-1-phenyl-propyl)-2,3,6,7,8,9-hexahydro-[1,4]dioxino[2,3-g]isoquinoline-8-carbonyl]-amino}-3-[4-(6,7-dihydro-5H-[1]pyrindin-4-yl)-phenyl]-propionic acid], the EC50 stood at 29 nM.

Consider `CC[C@@H](c1ccccc1)N1Cc2cc3c(cc2C[C@H]1C(=O)N[C@@H](Cc1ccc(Oc2ccncc2)cc1)C(=O)O)OC[C@H](c1ccc(OCc2ccc(Cl)c(Cl)c2)cc1)O3` [Example 184], for which the EC50 came out at 74 nM.

Consider `CC[C@@H](c1ccccc1)N1Cc2cc3c(cc2C[C@H]1C(=O)N[C@@H](Cc1ccc(Oc2cccnc2)cc1)C(=O)O)OC[C@H](c1ccc(OCc2ccc(Cl)c(Cl)c2)cc1)O3` [Example 185, (S)-2-{[(3S,8S)-3-[4-(3,4-Dichloro-benzyloxy)-phenyl]-7-((S)-1-phenyl-propyl)-2,3,6,7,8,9-hexahydro-[1,4]dioxino[2,3-g]isoquinoline-8-carbonyl]-amino}-3-[4-(pyridin-3-yloxy)-phenyl]-propionic acid], for which the EC50 was determined as 119 nM.

On to `CC[C@@H](c1ccccc1)N1Cc2cc3c(cc2C[C@H]1C(=O)N[C@@H](Cc1ccc(-c2ccnnc2)cc1)C(=O)O)OC[C@H](c1ccc(OCc2ccc(Cl)c(Cl)c2)cc1)O3` [Example 186, (S)-2-{[(3S,8S)-3-[4-(3,4-Dichloro-benzyloxy)-phenyl]-7-((S)-1-phenyl-propyl)-2,3,6,7,8,9-hexahydro-[1,4]dioxino[2,3-g]isoquinoline-8-carbonyl]-amino}-3-(4-pyridazin-4-yl-phenyl)-propionic acid], for which the EC50 came out at 256 nM.

As to `CC[C@@H](c1ccccc1)N1Cc2cc3c(cc2C[C@H]1C(=O)N[C@@H](Cc1ccc(-c2cc(C)nc(C)c2)cc1)C(=O)O)OC[C@H](c1ccc(OCc2ccc(Cl)c(Cl)c2)cc1)O3` [Example 188, (S)-2-{[(3S,8S)-3-[4-(3,4-Dichloro-benzyloxy)-phenyl]-7-((S)-1-phenyl-propyl)-2,3,6,7,8,9-hexahydro-[1,4]dioxino[2,3-g]isoquinoline-8-carbonyl]-amino}-3-[4-(2,6-dimethyl-pyridin-4-yl)-phenyl]-propionic acid], the EC50 came out at 14 nM.

With `CC[C@@H](c1ccccc1)N1Cc2cc3c(cc2C[C@H]1C(=O)N[C@@H](Cc1ccc(Oc2ccnc(C)c2C)cc1)C(=O)O)OC[C@H](c1ccc(OCc2ccc(Cl)c(Cl)c2)cc1)O3` [Example 189, (S)-2-{[(3S,8S)-3-[4-(3,4-Dichloro-benzyloxy)-phenyl]-7-((S)-1-phenyl-propyl)-2,3,6,7,8,9-hexahydro-[1,4]dioxino[2,3-g]isoquinoline-8-carbonyl]-amino}-3-[4-(2,3-dimethyl-pyridin-4-yloxy)-phenyl]-propionic acid], the EC50 was determined as 31 nM.

`CC[C@@H](c1ccccc1)N1Cc2cc3c(cc2C[C@H]1C(=O)N[C@@H](Cc1ccc(-c2cc(C)ncc2C)cc1)C(=O)O)OC[C@H](c1ccc(OCc2ccc(Cl)c(Cl)c2)cc1)O3` [Example 190, (S)-2-{[(3S,8S)-3-[4-(3,4-Dichloro-benzyloxy)-phenyl]-7-((S)-1-phenyl-propyl)-2,3,6,7,8,9-hexahydro-[1,4]dioxino[2,3-g]isoquinoline-8-carbonyl]-amino}-3-[4-(2,5-dimethyl-pyridin-4-yl)-phenyl]-propionic acid]: the EC50 was 11 nM.

On to `CC[C@@H](c1ccccc1)N1Cc2cc3c(cc2C[C@H]1C(=O)N[C@@H](Cc1ccc(-c2ccnn2C)cc1)C(=O)O)OC[C@H](c1ccc(OCc2ccc(Cl)c(Cl)c2)cc1)O3` [Example 191, (S)-2-{[(3S,8S)-3-[4-(3,4-Dichloro-benzyloxy)-phenyl]-7-((S)-1-phenyl-propyl)-2,3,6,7,8,9-hexahydro-[1,4]dioxino[2,3-g]isoquinoline-8-carbonyl]-amino}-3-[4-(2-methyl-2H-pyrazol-3-yl)-phenyl]-propionic acid], for which the EC50 was 66 nM.

With `CC[C@@H](c1ccccc1)N1Cc2cc3c(cc2C[C@H]1C(=O)N[C@@H](Cc1ccc(-c2ccnc(O)c2)cc1)C(=O)O)OC[C@H](c1ccc(OCc2ccc(Cl)c(Cl)c2)cc1)O3` [Example 195, (S)-2-{[(3S,8S)-3-[4-(3,4-Dichloro-benzyloxy)-phenyl]-7-((S)-1-phenyl-propyl)-2,3,6,7,8,9-hexahydro-[1,4]dioxino[2,3-g]isoquinoline-8-carbonyl]-amino}-3-[4-(2-hydroxy-pyridin-4-yl)-phenyl]-propionic acid], the half-maximal effective concentration (EC50) stood at 138 nM.

As to `CC[C@@H](c1ccccc1)N1Cc2cc3c(cc2C[C@H]1C(=O)N[C@@H](Cc1ccc(-c2ccc(C)nc2)cc1)C(=O)O)OC[C@H](c1ccc(OCc2ccc(Cl)c(Cl)c2)cc1)O3` [Example 196, (S)-2-{[(3S,8S)-3-[4-(3,4-Dichloro-benzyloxy)-phenyl]-7-((S)-1-phenyl-propyl)-2,3,6,7,8,9-hexahydro-[1,4]dioxino[2,3-g]isoquinoline-8-carbonyl]-amino}-3-[4-(6-methyl-pyridin-3-yl)-phenyl]-propionic acid], the EC50 was 127 nM.

Regarding `CC[C@@H](c1ccccc1)N1Cc2cc3c(cc2C[C@H]1C(=O)N[C@@H](Cc1ccc(-c2cnn(C)c2)cc1)C(=O)O)OC[C@H](c1ccc(OCc2ccc(Cl)c(Cl)c2)cc1)O3` [Example 197, (S)-2-{[(3S,8S)-3-[4-(3,4-Dichloro-benzyloxy)-phenyl]-7-((S)-1-phenyl-propyl)-2,3,6,7,8,9-hexahydro-[1,4]dioxino[2,3-g]isoquinoline-8-carbonyl]-amino}-3-[4-(1-methyl-1H-pyrazol-4-yl)-phenyl]-propionic acid], the EC50 worked out at 262 nM.

Turning to `CC[C@@H](c1ccccc1)N1Cc2cc3c(cc2C[C@H]1C(=O)N[C@@H](Cc1ccc(-c2ccnc(CO)c2)cc1)C(=O)O)OC[C@H](c1ccc(OCc2ccc(Cl)c(Cl)c2)cc1)O3` [Example 206, (S)-2-{[(3S,8S)-3-[4-(3,4-Dichloro-benzyloxy)-phenyl]-7-((S)-1-phenyl-propyl)-2,3,6,7,8,9-hexahydro-[1,4]dioxino[2,3-g]isoquinoline-8-carbonyl]-amino}-3-[4-(2-hydroxymethyl-pyridin-4-yl)-phenyl]-propionic acid], the EC50 was found to be 61 nM.

Take `CC[C@@H](c1ccccc1)N1Cc2cc3c(cc2C[C@H]1C(=O)N[C@@H](Cc1ccc(-c2ccnc(N)c2)cc1)C(=O)O)OC[C@H](c1ccc(OCc2ccc(Cl)c(Cl)c2)cc1)O3` [Example 208, (S)-3-[4-(2-Amino-pyridin-4-yl)-phenyl]-2-{[(3S,8S)-3-[4-(3,4-dichloro-benzyloxy)-phenyl]-7-((S)-1-phenyl-propyl)-2,3,6,7,8,9-hexahydro-[1,4]dioxino[2,3-g]isoquinoline-8-carbonyl]-amino}-propionic acid]: the EC50 was 72 nM.

`CC[C@@H](c1ccccc1)N1Cc2cc3c(cc2C[C@H]1C(=O)N[C@@H](Cc1ccc(-c2ccnc4ccccc24)cc1)C(=O)O)OC[C@H](c1ccc(OCc2ccc(Cl)c(Cl)c2)cc1)O3` [Example 211, (S)-2-{[(3S,8S)-3-[4-(3,4-Dichloro-benzyloxy)-phenyl]-7-((S)-1-phenyl-propyl)-2,3,6,7,8,9-hexahydro-[1,4]dioxino[2,3-g]isoquinoline-8-carbonyl]-amino}-3-(4-quinolin-4-yl-phenyl)-propionic acid]: the half-maximal effective concentration (EC50) was 21 nM.
